Reference: patent publication US9943500B2, “Methods of treating topical microbial infections” (LUODA PHARMA PTY LIMITED, priority 2013, dated 2018)
Converted amounts (≈) assume the structure as drawn.

Assays:
[1] = system: 51 Australian bovine mastitis isolates, primarily S. aureus, S. agalactiae and S. uberis; assay: Minimum inhibitory concentration assay, bovine mastitis isolates (Example 3); assay type: cell-based; details: all 51 isolates; read-out: MIC90
Source text: Fifty-one dairy bovine mastitis isolates, encompassing a variety of bacterial species, were isolated from milk samples collected from dairy farms in rural South Australia by the University of Adelaide Ambulatory Clinic. Cellular morphology observed from Gram stains and catalase testing was used to differentiate Staphylococcus, Streptococcus and Corynebacterium species from Gram-negative species. Further biochemical testing including coagulase, Lancefield grouping, esculin hydrolysis and CAMP tests were used to identify the isolates to species level. Where biochemical test results were not definitive in identifying species, amplification and sequencing of the 16S ribosomal RNA gene was used to confirm the identity of the isolates.
Minimum inhibitory concentration tests were performed in the manner outlined by the CLSI (CLSI 2012). Test compounds were dispensed into a 96-well microtitre tray containing 90 μl of CAMHB in 90 μl volumes and serial diluted to obtain a concentration gradient ranging from 128 μg/ml to 0.25 μg/ml (see FIG. 24). For Streptococcus species, CAMHB was replaced with a CAMHB supplement with 4% lysed-sheep blood (4% LSB:CAMHB). 4% LSB:CAMHB was prepared by mixing 5 ml sheep blood to 5 ml milliQ water, and repeated freezing at −20° C. and thawing, followed by centrifuged for 20 min at 7000 rpm. 7 ml of the supernatant was removed and added to 93 mL of CAMB.
Bacterial suspensions were prepared by emulsifying fresh colonies obtained from an overnight culture on Sheep Blood Agar (SBA) in 4 mls of 9.1 g/l physiological saline to an optical density read at 600 nm (OD600 nm) between 1.00 and 1.20. Standardised bacterial suspensions were diluted 1:10 in physiological saline and dispensed into all wells, excluding the negative control wells, in 10 μL volumes giving a final concentration of between 4×10^5 and 5×10^5 CFU/mL in each well. 96-well microtitre trays were incubated for 24 hours at 37° C. in 5% CO2 and then assessed both visually and using OD readings from a microplate reader at a wavelength of 600 nm. These tests were performed in duplicate and repeated if discrepancies in MIC values were observed between replicates.
The minimum inhibitory concentration (MIC) was determined to be the lowest concentration of antibiotic that prevented growth of bacteria both visually and using OD readings. MIC values were collated and used to determine the lowest concentration of each compound effective against 50% and 90% of isolates, known as the MIC50 and MIC90 respectively. These values as well as the range of MIC values were then used for direct comparisons between test compounds and for general comparisons with ampicillin.

MRSA 9 = assay: Macrodilution time-kill assay (viable counts); details: 24 hours; all concentrations tested
Experimental: (§1) Due to the detection limit of the OD measurements, the time-kill assays were also performed in macrodilution. In 15 mL tubes, 9 mL volumes of the test compounds in CAMHB were prepared at one, four and eight times the MIC concentration and 9 mL volumes of ampicillin were prepared in CAMHB at one and four times the MIC. 1 mL of a 4 to 5×10^6 bacterial suspension (as prepared for MIC testing) was added to each of the tubes as well as a growth control tube containing only 9 mL of CAMHB. These tubes were incubated at 37° C. in an orbital shaker rotating at 100 rpm for 24 hours. At 0, 1, 4, 8, 12 and 24 hours after addition of the bacteria, 100 μL samples were removed from each tube and serial diluted in 9.1 g/L saline solution. The dilutions were then plated in duplicate onto plate count agar and incubated for 24 hours at 37° C. After incubation, viable counts were obtained from the number of colonies visible on the agar and these were used to calculate the number of CFU/mL at each time point. For the macrodilution time-kill analysis, only the ATCC 49775 reference strain and MRSA 9 were assessed in order to further investigate the antibacterial activity against methicillin-resistant strains. These macrodilution time-kill assays were independently repeated and bactericidal activity was defined as a ≥3 log decrease in the number of CFU/mL.

[2] = system: ATCC 49775 reference strain; assay: Macrodilution time-kill assay (viable counts); details: 24 hours; all concentrations tested
Experimental: as §1

[3] = system: methicillin sensitive and methicillin-resistant staphylococci; assay: Minimum inhibitory concentration assay, 42 Staphylococcus isolates (Example 1); assay type: cell-based
Experimental: Forty-two isolates of Staphylococcus of varying species and strain type were collected from isolate collections. Biochemical testing including coagulase, latex agglutination testing for protein A, Vogues-Proskauer tests and resistance to polymyxin B were used to identify the species of Staphylococcus. All isolates were also screened for resistance to various antimicrobials commonly used for the treatment of skin infections. This was performed using the disk diffusion method and resistance standards as outlined by the CLSI. The following antimicrobials were used: amoxicillin-clavulanic acid (30 μg), cephalothin (30 μg), clindamycin (2 μg), enrofloxacin (5 μg), erythromycin (15 μg), gentamicin (10 μg), imipenem (10 μg), oxacillin (1 μg), penicillin G (10 units), tetracycline (30 μg), 1:19 trimethoprim-sulfamethoxazole (25 μg) and vancomycin (30 μg).
Minimum inhibitory concentration tests were performed according to CLSI Standards (CLSI 2012). 90 μL of one of the test compound solutions, or ampicillin, was added to the end column of a 96 well plate that contained 90 μL of CAMHB in each well. The solutions were then serially diluted across the row, leaving 2 columns for positive and negative controls (FIG. 2). A bacterial suspension was prepared by adding fresh colonies obtained from an overnight culture on Sheep Blood Agar (SBA) to a 9.1 g/L saline solution. This suspension was adjusted to a concentration of between 4×10^8 and 5×10^8 CFU/mL. […] 1 mL of this suspension was added to 9 mL of saline before being added to all wells, excluding the negative control wells, in 10 μL volumes giving a final concentration of between 4×10^5 and 5×10^5 CFU/mL in each well. The tests were then incubated for 24 hours at 37° C. and then assessed both visually and using OD readings from a microplate reader at a wavelength of 600 nm. These tests were performed in duplicate but repeated if discrepancies were observed.
The minimum inhibitory concentration (MIC) was determined to be the lowest concentration of antibiotic that prevented growth of bacteria both visually and using OD readings. Direct statistical comparisons between the test compounds and ampicillin could not be performed in light of confidential information restrictions, such as restrictions on disclosure of information relating to the compound structure, such as molecular weight. Instead, MIC values were collated and used to determine the lowest concentration of each compound that was effective against 50% and 90% of isolates, referred to as the MIC50 and MIC90 respectively. These values as well as the range of MIC values were then used for direct comparisons between test compounds and for general comparisons with ampicillin.

CC[C@@H](C(=O)[C@@H](C)[C@@H](O)[C@H](C)CCc1ccc(C)c(O)c1C(=O)O)[C@H]1O[C@](CC)([C@H]2CC[C@](O)(CC)[C@H](C)O2)C[C@@H]1C [LP 1369, Lasalocid]
MIC90 [1]: 4 µg/mL (≈ 6.77 µM) | decrease in the number of viable bacteria (MRSA 9): < 3 log10 | decrease in the number of viable bacteria [2]: < 3 log10 | MIC50 and MIC90 values compared with ampicillin [3]: considerably lower than ampicillin
